According to PubChem BioAssay AID248 (DTP/NCI, 2004):
Inconclusive results and toxic doses are left out. Cut-off read from the data, not from the text of the source: active = T/C of 150% or more; inactive = T/C below 125%.

Test system: L1210 leukemia ip in BDF1 mice, survival T/C
Experiment: NCI In Vivo Anticancer Drug Screen. Data for tumor model L1210 Leukemia (intraperitoneal) in B6D2F1 (BDF1) mice
Conditions: endpoint: mean survival time, higher = longer survival
Method in brief: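 Transplanted-tumor mice were given test agent; controls received vehicle only. Survival readings from the two groups were divided (treated over control).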

[1] = dose: 100.0 mg/kg/injection, schedule: Q04DX002 (ip), vehicle: saline with Tween-80
[2] = dose: 200.0 mg/kg/injection, schedule: Q04DX002 (ip), vehicle: saline with Tween-80
[3] = dose: 100.0 mg/kg/injection, schedule: Q04DX003 (ip), vehicle: Klucel (hydroxypropylcellulose) (HPC)
[4] = dose: 200.0 mg/kg/injection, schedule: Q04DX003 (ip), vehicle: Klucel (hydroxypropylcellulose) (HPC)
[5] = dose: 400.0 mg/kg/injection, schedule: Q04DX003 (ip), vehicle: Klucel (hydroxypropylcellulose) (HPC)
[6] = dose: 100.0 mg/kg/injection, schedule: Q01DX009 (ip), vehicle: saline with Tween-80
[7] = dose: 200.0 mg/kg/injection, schedule: Q01DX009 (ip), vehicle: saline with Tween-80
[8] = dose: 400.0 mg/kg/injection, schedule: Q01DX009 (ip), vehicle: saline with Tween-80
[9] = dose: 100.0 mg/kg/injection, schedule: Q04DX003 (ip), vehicle: saline with Tween-80
[10] = dose: 200.0 mg/kg/injection, schedule: Q04DX003 (ip), vehicle: saline with Tween-80
[11] = dose: 400.0 mg/kg/injection, schedule: Q04DX003 (ip), vehicle: saline with Tween-80
[12] = dose: 50.0 mg/kg/injection, schedule: Q01DX009 (ip), vehicle: saline
[13] = dose: 100.0 mg/kg/injection, schedule: Q01DX001 (ip), vehicle: saline
[14] = dose: 200.0 mg/kg/injection, schedule: Q01DX001 (ip), vehicle: saline
[15] = dose: 400.0 mg/kg/injection, schedule: Q01DX001 (ip), vehicle: saline

Measured: T/C

NC(N)=N/N=C(\c1ccccc1)C(O)c1ccccc1 (centres undefined)
inactive: dose: 15.0 mg/kg/injection, schedule: Q01DX Z (ip), vehicle: carboxymethylcellulose (CMC) 106 % of control | dose: 30.0 mg/kg/injection, schedule: Q01DX Z (ip), vehicle: carboxymethylcellulose (CMC) 101 % of control | dose: 60.0 mg/kg/injection, schedule: Q01DX Z (ip), vehicle: carboxymethylcellulose (CMC) 102 % of control | dose: 60.0 mg/kg/injection, schedule: Q01DX Z (oral), vehicle: carboxymethylcellulose (CMC) 96 % of control | dose: 120.0 mg/kg/injection, schedule: Q01DX Z (ip), vehicle: carboxymethylcellulose (CMC) 98 % of control | dose: 120.0 mg/kg/injection, schedule: Q01DX Z (oral), vehicle: carboxymethylcellulose (CMC) 90 % of control | dose: 240.0 mg/kg/injection, schedule: Q01DX Z (oral), vehicle: carboxymethylcellulose (CMC) 90 % of control | dose: 480.0 mg/kg/injection, schedule: Q01DX Z (oral), vehicle: carboxymethylcellulose (CMC) 93 % of control

CCCNC(=O)Oc1ccc(-c2ccccc2)cc1Cl
inactive: [1] 113 % of control | [2] 100 % of control | dose: 400.0 mg/kg/injection, schedule: Q04DX002 (ip), vehicle: saline with Tween-80 97 % of control

O=C1c2cc([N+](=O)[O-])ccc2-c2cc(Cl)c(NC(=O)C(Cl)Cl)cc21
inactive: dose: 50.0 mg/kg/injection, schedule: Q01DX001 (ip), vehicle: carboxymethylcellulose (CMC) 101 % of control | dose: 100.0 mg/kg/injection, schedule: Q01DX001 (ip), vehicle: carboxymethylcellulose (CMC) 104 % of control | dose: 200.0 mg/kg/injection, schedule: Q01DX001 (ip), vehicle: carboxymethylcellulose (CMC) 101 % of control | dose: 400.0 mg/kg/injection, schedule: Q01DX001 (ip), vehicle: carboxymethylcellulose (CMC) 104 % of control

COc1c(OC)c(C(C)C)c2c(c1C(=O)O)C(=O)OC2=O
inactive: dose: 100.0 mg/kg/injection, schedule: Q01DX001 (ip), vehicle: Klucel (hydroxypropylcellulose) (HPC) 103 % of control | [3] 96 % of control | dose: 200.0 mg/kg/injection, schedule: Q01DX001 (ip), vehicle: Klucel (hydroxypropylcellulose) (HPC) 103 % of control | [4] 88 % of control | dose: 400.0 mg/kg/injection, schedule: Q01DX001 (ip), vehicle: Klucel (hydroxypropylcellulose) (HPC) 100 % of control | [5] 89 % of control

COc1cccc(N2C(=O)C3C(C2=O)C2(Cl)C(Cl)=C(Cl)C3(Cl)C2(Cl)Cl)c1 (centres undefined)
inactive: dose: 100.0 mg/kg/injection, schedule: Q01DX009 (ip), vehicle: Klucel (hydroxypropylcellulose) (HPC) 98 % of control | dose: 200.0 mg/kg/injection, schedule: Q01DX009 (ip), vehicle: Klucel (hydroxypropylcellulose) (HPC) 94 % of control | dose: 400.0 mg/kg/injection, schedule: Q01DX009 (ip), vehicle: Klucel (hydroxypropylcellulose) (HPC) 89 % of control

Nc1ncnc(N)c1NC(=O)c1ccc(Cl)c(Cl)c1
inactive: dose: 75.0 mg/kg/injection, schedule: Q01DX001 (ip), vehicle: saline with Tween-80 102 % of control | dose: 150.0 mg/kg/injection, schedule: Q01DX001 (ip), vehicle: saline with Tween-80 98 % of control | dose: 300.0 mg/kg/injection, schedule: Q01DX001 (ip), vehicle: saline with Tween-80 96 % of control

CCCCCCCCCCCC(=O)NC(=O)N1CCOCC1
inactive: dose: 100.0 mg/kg/injection, schedule: Q01DX001 (ip), vehicle: saline with Tween-80 101 % of control | [6] 97 % of control | dose: 200.0 mg/kg/injection, schedule: Q01DX001 (ip), vehicle: saline with Tween-80 101 % of control | [7] 98 % of control | dose: 400.0 mg/kg/injection, schedule: Q01DX001 (ip), vehicle: saline with Tween-80 94 % of control | [8] 93 % of control

CC(O)(C(F)(F)F)C(C)(O)C(F)(F)F (centres undefined)
inactive: [1] 86 % of control | [2] 91 % of control

O=C(Sc1ccc2ccccc2c1CN1CCCCC1)c1ccc([N+](=O)[O-])cc1
inactive: dose: 200.0 mg/kg/injection, schedule: Q01DX Z (ip), vehicle: methylcellulose (MC) 96 % of control | dose: 225.0 mg/kg/injection, schedule: Q01DX Z (ip), vehicle: methylcellulose (MC) 94 % of control | dose: 450.0 mg/kg/injection, schedule: Q01DX Z (ip), vehicle: methylcellulose (MC) 89 % of control | dose: 675.0 mg/kg/injection, schedule: Q01DX Z (ip), vehicle: methylcellulose (MC) 96 % of control

CC(C)CCOC(=O)C(Br)c1ccccc1 (centres undefined)
inactive: [6] 95 % of control | [9] 104 % of control | [7] 88 % of control | [10] 99 % of control | [8] 88 % of control | [11] 95 % of control

C[N+](C)(Cc1ccc(F)cc1)C1c2ccccc2-c2ccccc21
inactive: dose: 6.25 mg/kg/injection, schedule: Q04DX003 (ip), vehicle: saline with Tween-80 90 % of control | dose: 25.0 mg/kg/injection, schedule: Q04DX003 (ip), vehicle: saline with Tween-80 89 % of control

Cc1cc(I)ccc1NC(=S)Nc1ccccc1F
inactive: [9] 93 % of control | [10] 105 % of control

CC(O)C#CC#CC(C)O (centres undefined)
inactive: dose: 12.5 mg/kg/injection, schedule: Q01DX009 (ip), vehicle: saline 103 % of control | dose: 12.5 mg/kg/injection, schedule: Q04DX002 (ip), vehicle: saline 113 % of control | dose: 25.0 mg/kg/injection, schedule: Q01DX009 (ip), vehicle: saline 109 % of control | dose: 25.0 mg/kg/injection, schedule: Q04DX002 (ip), vehicle: saline 109 % of control | [12] 101 % of control | dose: 50.0 mg/kg/injection, schedule: Q04DX002 (ip), vehicle: saline 94 % of control

Cn1cnc([N+](=O)[O-])c1SCC(=O)O
inactive: dose: 100.0 mg/kg/injection, schedule: Q04DX003 (ip), vehicle: saline 102 % of control | dose: 200.0 mg/kg/injection, schedule: Q04DX003 (ip), vehicle: saline 102 % of control | dose: 400.0 mg/kg/injection, schedule: Q04DX003 (ip), vehicle: saline 101 % of control

Nc1nc(NCCCc2ccccc2)c2[nH]cnc2n1
inactive: dose: 12.5 mg/kg/injection, schedule: Q04DX002 (ip), vehicle: Klucel (hydroxypropylcellulose) (HPC) 98 % of control | dose: 25.0 mg/kg/injection, schedule: Q04DX002 (ip), vehicle: Klucel (hydroxypropylcellulose) (HPC) 95 % of control | dose: 50.0 mg/kg/injection, schedule: Q04DX002 (ip), vehicle: Klucel (hydroxypropylcellulose) (HPC) 102 % of control

CCCCCCCC/C=C\CCCCCCCC(=O)O.[Fe]
inactive: [13] 93 % of control | [14] 95 % of control | [15] 90 % of control

O=C(O)c1ccccc1C(c1ccccc1)c1ccccc1
inactive: [9] 98 % of control | [10] 93 % of control | [11] 98 % of control

OC(C(F)(F)F)C(F)(F)Cl (centres undefined)
inactive: [13] 104 % of control

CCOC(CN=Cc1cc(C)c2[nH]c3ccc(OC)cc3c2c1C)OCC
inactive: dose: 100.0 mg/kg/injection, schedule: Q01DX001 (ip), vehicle: other 96 % of control | [3] 98 % of control | dose: 200.0 mg/kg/injection, schedule: Q01DX001 (ip), vehicle: other 102 % of control | [4] 96 % of control | dose: 400.0 mg/kg/injection, schedule: Q01DX001 (ip), vehicle: other 98 % of control | [5] 96 % of control

CNc1ncccn1
inactive: dose: 50.0 mg/kg/injection, schedule: Q01DX001 (ip), vehicle: saline 109 % of control | [13] 103 % of control | [14] 107 % of control | [15] 107 % of control

O=C1OC2(CCNCC2)C(=O)N1c1ccc(F)cc1
inactive: dose: 12.5 mg/kg/injection, schedule: Q01DX001 (ip), vehicle: carboxymethylcellulose (CMC) 104 % of control | dose: 25.0 mg/kg/injection, schedule: Q01DX001 (ip), vehicle: carboxymethylcellulose (CMC) 101 % of control

O=C1c2ccccc2C(=O)c2c(O)ccc(O)c21
inactive: [12] 94 % of control | [6] 106 % of control | dose: 100.0 mg/kg/injection, schedule: Q01DX009 (ip), vehicle: saline 102 % of control | [7] 101 % of control | dose: 200.0 mg/kg/injection, schedule: Q01DX009 (ip), vehicle: saline 102 % of control | [8] 101 % of control

CCC1(c2ccccc2)C(=O)NC(=O)N(CN2CCOCC2)C1=O (centres undefined)
inactive: dose: 50.0 mg/kg/injection, schedule: Q01DX009 (ip), vehicle: saline with Tween-80 114 % of control | [6] 93 % of control | [7] 97 % of control
